Source: BindingDB's records for doi:10.1074/jbc.M113.532804 (University of Wuerzburg, 2014)

How the values were obtained:
[1] = target: T1, Enoyl-[acyl-carrier-protein] reductase [NADPH] FabI (Staphylococcus aureus (strain NCTC 8325 / PS 47), UniProt Q2FZQ3); assay: Inhibition Kinetics Assay; conditions: pH 7.5
T1 sequence (Q2FZQ3 whole entry): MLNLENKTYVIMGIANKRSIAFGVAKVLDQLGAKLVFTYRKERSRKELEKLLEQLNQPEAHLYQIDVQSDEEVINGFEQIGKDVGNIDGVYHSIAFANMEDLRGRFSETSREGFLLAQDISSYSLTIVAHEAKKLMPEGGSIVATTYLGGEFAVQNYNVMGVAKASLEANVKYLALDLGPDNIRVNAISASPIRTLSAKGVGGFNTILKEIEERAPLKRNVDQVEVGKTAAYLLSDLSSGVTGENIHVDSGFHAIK
Protocol: (§1) Kinetics were performed on a Cary 100 spectrophotometer (Varian) at 20 °C.

[2] = target: T2, Enoyl-[acyl-carrier-protein] reductase [NADH] FabI (Escherichia coli (strain K12), UniProt P0AEK4); assay: Inhibition Kinetics Assay; conditions: pH 7.5
T2 sequence (P0AEK4 whole entry): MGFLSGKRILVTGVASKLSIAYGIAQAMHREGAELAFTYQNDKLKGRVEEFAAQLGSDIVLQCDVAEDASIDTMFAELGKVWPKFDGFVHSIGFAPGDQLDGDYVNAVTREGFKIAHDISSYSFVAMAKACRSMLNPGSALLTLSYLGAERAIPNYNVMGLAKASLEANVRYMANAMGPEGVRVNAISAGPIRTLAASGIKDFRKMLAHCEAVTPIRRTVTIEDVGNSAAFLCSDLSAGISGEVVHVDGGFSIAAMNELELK
Protocol: as §1

SMILES	Ki [1] [nM]	Ki [2] [nM]
CCCCCCc1cc(=O)c(Cc2ccccc2C#N)cn1C [PT159]	11	–
CCCCCCc1cc(=O)c(Oc2ccccc2C)cn1C [PT166]	2.7	7
CCCCCCc1ccn(Cc2ccccc2C)c(=O)c1 [PT171]	11.9	95.7
CCCCCCc1ccn(Cc2cccc(N)c2C)c(=O)c1 [PT173]	2	203
CCCCCCc1ccc(Oc2ccccc2)c(=O)[nH]1 [PT191]	196	–

Second part, led by results:

Ki [1] [nM]	SMILES	Ki [2] [nM]
1.3	Cc1c(N)cccc1Cn1ccc(OCCc2cccs2)cc1=O [CG400549]	–
229	Cc1ccn(Cc2ccccc2Cl)c(=O)c1 [PT170]	–
11	CCCCCCc1ccn(Cc2ccccc2Cl)c(=O)c1 [PT172]	–
19	CCCCCCc1ccn(Cc2ccccc2)c(=O)c1 [PT179]	–
29.6	CCCCCc1ccn(Cc2ccccc2C#N)c(=O)c1 [PT420]	–
